Data on 28 molecules can be found in US12263171B2, “7-, 8-, and 10-substituted amino triazolo quinazoline derivatives as adenosine receptor antagonists, pharmaceutical compositions and their use” (Merck Sharp & Dohme LLC, priority 2018, dated 2025).

The target of assay [1] is T1, human A2b adenosine receptor (Homo sapiens (Human), UniProt P29275). Description: A2B antagonism in cAMP cell-based assay (LANCE cAMP, HEK293 cells, 600 nM adenosine). Conditions: for IC50: values marked *: cAMP cell-based assay; for *A2B cAMP % inh. @ 10000 nM: marked *. In general terms: In TR-FRET formats the signal depends on donor and acceptor labels being close together.

Assay [2] deals with T2, human A2a adenosine receptor (Homo sapiens (Human), UniProt P29274). Nature of the assay: A2A antagonism in cAMP cell-based assay (LANCE cAMP, HEK293 cells, 300 nM adenosine). Conditions: values marked *: cAMP cell-based assay. The procedure:
Measurement of A2A and A2B Antagonism in cAMP Cell-Based Assay
All subsequent liquid additions were performed using a multichannel pipettor. […] After this time 5 μL of either 300 nM or 600 nM adenosine (Sigma Cat. No. A9251) for A2A and A2B respectively was added and incubated for 30 minutes at 37° C. and 5% CO2 in a humidified environment. At this time detection mix was prepared by combining the LANCE Eu-W8044 labeled streptavidin and. Biotin-cAMP in detection buffer according to the manufacturers protocol. […] Curve fitting of the percent effect data versus the log of compound concentration used a 4-parameter concentration response curve fitting algorithm to calculate IC50 values.

Assay [3] has as its target T2, human A2a adenosine receptor. Nature of the assay: A2a receptor affinity radioligand binding assay ([3H] SCH58261, membranes from HEK293 or CHO cells). Conditions: unstarred values: radioligand binding. In a few lines:
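Displacement of tritiated SCH58261 (working dilution 4 nM) from recombinant human A2a receptor membranes (HEK293 or CHO), 60 min at room temperature in Tris pH 7.4/MgCl2 buffer after 15–30 min compound preincubation. Scintillation counting after filtration; normalized percent effect fitted 4-parameter logistic for IC50.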

In assay [4] the target is T1, human A2b adenosine receptor. Nature of the assay: A2b radioligand filtration binding assay (tritiated proprietary A2b antagonist, HEK293 membranes). Conditions: @ 10000 nM, unstarred. The essentials:
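Displacement of a tritiated proprietary A2b antagonist from membranes of HEK293 cells recombinantly expressing human A2b receptor, measured by filtration and scintillation counting. Percent effect was normalized to total and non-specific binding and fitted with a 4-parameter logistic to give IC50.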

SMILES strings stand for the structures.

T1 sequence (P29275 whole entry): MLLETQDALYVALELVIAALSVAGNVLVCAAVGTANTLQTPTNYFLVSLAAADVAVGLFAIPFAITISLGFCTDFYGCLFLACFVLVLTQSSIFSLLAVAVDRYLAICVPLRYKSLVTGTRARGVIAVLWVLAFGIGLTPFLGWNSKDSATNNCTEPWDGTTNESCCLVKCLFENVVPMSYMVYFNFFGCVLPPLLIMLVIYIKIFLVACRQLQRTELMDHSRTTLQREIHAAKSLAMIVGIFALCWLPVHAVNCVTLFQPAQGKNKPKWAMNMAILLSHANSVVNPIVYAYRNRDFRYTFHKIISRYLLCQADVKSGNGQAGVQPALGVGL
T2 sequence (P29274 whole entry): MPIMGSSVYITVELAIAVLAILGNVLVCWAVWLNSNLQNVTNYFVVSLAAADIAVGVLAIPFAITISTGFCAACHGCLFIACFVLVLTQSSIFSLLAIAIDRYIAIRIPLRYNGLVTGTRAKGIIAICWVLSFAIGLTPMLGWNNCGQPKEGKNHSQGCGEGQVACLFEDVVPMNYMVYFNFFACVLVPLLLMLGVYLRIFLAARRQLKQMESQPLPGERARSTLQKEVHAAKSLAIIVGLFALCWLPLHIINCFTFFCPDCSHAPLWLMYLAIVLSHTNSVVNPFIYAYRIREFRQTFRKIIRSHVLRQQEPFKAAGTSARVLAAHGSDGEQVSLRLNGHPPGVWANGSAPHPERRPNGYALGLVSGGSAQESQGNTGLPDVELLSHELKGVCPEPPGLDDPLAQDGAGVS

Regarding `COc1ccc2c(c1)nc(N)n1nc([C@H]3C[C@@H](C)CN(c4cn([C@H](C)[C@@H](C)O)nc4C)C3)nc21` [Example 219C, (2R,3R)-3-(4-((3S,5R)-3-(5-amino-8-methoxy-[1,2,4]triazolo[1,5-c]quinazolin-2-yl)-5-methylpiperidin-1-yl)-3-methyl-1H-pyrazol-1-yl)butan-2-ol], the IC50 (as a rule, the concentration at which inhibition is half-maximal) is 5650 nM in assay [1] and 38.6 nM in assay [2].

As to `COc1ccc2c(c1)nc(N)n1nc([C@@H]3C[C@@H](C(F)(F)F)CN(c4cnn(CC(C)(C)O)c4)C3)nc21` (single isomer, unassigned) [Example 218B, 1-(4-((3R,5R or 3S,5S)-3-(5-amino-8-methoxy-[1,2,4]triazolo[1,5-c]quinazolin-2-yl)-5-(trifluoromethyl)piperidin-1-yl)-1H-pyrazol-1-yl)-2-methylpropan-2-ol], the IC50 in assay [1] was over 10000 nM; in assay [2] it was 635 nM.

Turning to `COc1cccc2c1nc(N)n1nc(C3CCC(C)N(c4cnn(C(C)(C)CO)c4)C3)nc21` (single isomer, unassigned) [Example 146C], the values for the IC50 in assay [1] and in assay [2] were 2200 nM and 101 nM, respectively.

For the molecule `COc1ccc2c(c1)nc(N)n1nc([C@@H]3C[C@@H](C)CN(c4cnn(C(C)(C)CO)c4)C3)nc21` [Example 222D, 2-(4-((3R,5R)-3-(5-amino-8-methoxy-[1,2,4]triazolo[1,5-c]quinazolin-2-yl)-5-methylpiperidin-1-yl)-1H-pyrazol-1-yl)-2-methylpropan-1-ol], the IC50 in assay [1] stood at 655 nM; in assay [2], 33.3 nM.

For `COc1ccc2c(c1)nc(N)n1nc([C@H]3C[C@H](C)CN(c4cnn(C(C)(C)CO)c4)C3)nc21` [Example 222B, 2-(4-((3S,5S)-3-(5-amino-8-methoxy-[1,2,4]triazolo[1,5-c]quinazolin-2-yl)-5-methylpiperidin-1-yl)-1H-pyrazol-1-yl)-2-methylpropan-1-ol], the IC50 in assay [1] stood at 1720 nM; in assay [2], 63.8 nM.

As to `COc1cccc2c1nc(N)n1nc([C@@H]3CCCN(c4ccc(C(F)(F)F)cn4)C3)nc21` [Example 118, (R)-7-methoxy-2-(1-(5-(trifluoromethyl)pyridin-2-yl)piperidin-3-yl)-[1,2,4]triazolo[1,5-c]quinazolin-5-amine], the IC50 in assay [1] was found to be 105 nM; in assay [2], 10.6 nM.

In the case of `COc1cccc2c1nc(N)n1nc([C@H]3CC[C@@H](C)N(c4cn(CC(C)(C)O)nc4C)C3)nc21` [Example 145D, 1-(4-((2R,5S)-5-(5-amino-7-methoxy-[1,2,4]triazolo[1,5-c]quinazolin-2-yl)-2-methylpiperidin-1-yl)-3-methyl-1H-pyrazol-1-yl)-2-methylpropan-2-ol], the figures for the IC50 in assay [1] and in assay [2] were 461 nM and 30.3 nM, respectively.

With `COc1ccc2c(c1)nc(N)n1nc([C@@H]3CCCN(c4cnn([C@@H](C)[C@@H](C)O)c4)C3)nc21` [Example 221A, (2R,3S)-3-(4-((R)-3-(5-amino-8-methoxy-[1,2,4]triazolo[1,5-c]quinazolin-2-yl)piperidin-1-yl)-1H-pyrazol-1-yl)butan-2-ol], the IC50 came to 61 nM in assay [1] and 1.92 nM in assay [3].

Take `COc1ccc2c(c1)nc(N)n1nc([C@@H]3C[C@H](C)CN(c4cn([C@@H](C)[C@H](C)O)nc4C)C3)nc21` [Example 219D, (2S,3S)-3-(4-((3R,5S)-3-(5-amino-8-methoxy-[1,2,4]triazolo[1,5-c]quinazolin-2-yl)-5-methylpiperidin-1-yl)-3-methyl-1H-pyrazol-1-yl)butan-2-ol]: the “*A2B cAMP % inh. @ 10000 nM” value in assay [1] amounted to 33% inh. @ 10000 nM*. In addition, half-maximal inhibition in assay [2] (IC50) was put at 44.3 nM.

On to `COc1ccc2c(c1)nc(N)n1nc([C@@H]3CCCN(c4cnn(C(C)(C)[C@H](C)O)c4)C3)nc21` [Example 225A], for which the IC50 stood at 32.2 nM in assay [1] and 1.2 nM in assay [3].

As to `COc1cccc2c1nc(N)n1nc(C3CCC(C)N(c4cnn(C5CC5)c4)C3)nc21` (single isomer, unassigned) [Example 141A], the IC50 amounted to 712 nM in assay [1] and 2.2 nM in assay [3].

As to `COc1cccc2c1nc(N)n1nc([C@@H]3CCCN(c4ncc(F)cn4)C3)nc21` [Example 110, (R)-2-(1-(5-fluoropyrimidin-2-yl)piperidin-3-yl)-7-methoxy-[1,2,4]triazolo[1,5-c]quinazolin-5-amine], the 50% inhibitory concentration (IC50) in assay [1] turned out to be 721 nM; in assay [3] it was 2.2 nM.

As to `COc1cccc2c1nc(N)n1nc([C@@H]3CCCN(c4ccccn4)C3)nc21` [Example 119], the IC50 in assay [1] was 18.1 nM; in assay [3], 1.2 nM.

On to `CCn1cc(N2C[C@H](c3nc4c5cccc(OC)c5nc(N)n4n3)CC(F)(F)C2)cn1` [Example 153B], for which the IC50 in assay [1] stood at 677 nM; in assay [3] it was 1 nM.

Regarding `COc1cccc2c1nc(N)n1nc([C@H]3CC[C@H](C)N(c4cnn(CC5(O)CCC5)c4)C3)nc21` [Example 144B], the figures for the IC50 in assay [1] and in assay [3] were 333 nM and 3.1 nM, respectively.

Consider `COc1cccc2c1nc(N)n1nc([C@@H]3C[C@@H](F)CN(c4cnn(C5CC5)c4)C3)nc21` [Example 148B], for which the “*A2B cAMP % inh. @ 10000 nM” value in assay [1] was 36% inh. @ 10000 nM*. Moreover, in assay [3], the IC50 amounted to 27.8 nM.

For `COc1cccc2c1nc(N)n1nc([C@@H]3CCCN(c4csc(C5CC5)n4)C3)nc21` [Example 85, (R)-2-(1-(2-cyclopropylthiazol-4-yl)piperidin-3-yl)-7-methoxy-[1,2,4]triazolo[1,5-c]quinazolin-5-amine], the IC50 worked out at 314 nM in assay [1] and 14.9 nM in assay [3].

As to `COc1cccc2c1nc(N)n1nc(C3CCC(C)N(c4cnn(C5CC5)c4)C3)nc21` (single isomer, unassigned) [Example 141B], the IC50 in assay [1] was 2610 nM; in assay [3], 28.2 nM.

Turning to `COc1cccc2c1nc(N)n1nc([C@@H]3CCCN(c4ccn(CC(C)(C)O)n4)C3)nc21` [Example 63, (R)-1-(3-(3-(5-amino-7-methoxy-[1,2,4]triazolo[1,5-c]quinazolin-2-yl)piperidin-1-yl)-1H-pyrazol-1-yl)-2-methylpropan-2-ol], the IC50 in assay [1] is 32.7 nM; in assay [3], 2 nM.

Take `COc1cccc2c1nc(N)n1nc(C3CN(c4cnn(CC(F)(F)F)c4)CC(F)(F)C3)nc21` (single isomer, unassigned) [Example 155A]: the IC50 in assay [1] stood at 1330 nM; in assay [3], 12.1 nM.

`COc1cccc2c1nc(N)n1nc([C@@H]3CCCN(c4cc(C(F)(F)F)ccn4)C3)nc21` [Example 116, (R)-7-melhoxy-2-(1-(4-(trifluoromethyl)pyridin-2-yl)piperidin-3-yl)-[1,2,4]triazolo[1,5-c]quinazolin-5-amine]: the “A2B binding % inh. @ 10000 nM” value in assay [4] was determined as 18% inh. @ 10000 nM. For the same molecule, 40.5 nM corresponded to half-maximal inhibition in assay [2] (IC50).

As to `COc1cccc2c1nc(N)n1nc([C@@H]3CCCN(c4ncc[nH]4)C3)nc21` [Example 80, (R)-2-(1-(1H-imidazol-2-yl)piperidin-3-yl)-7-methoxy-[1,2,4]triazolo[1,5-c]quinazolin-5-amine], the IC50 in assay [1] turned out to be 18.2 nM; in assay [3], 2.3 nM.

For `COc1cccc2c1nc(N)n1nc([C@@H]3CCCN(c4cc(=O)n(C)c5ccccc45)C3)nc21` [Example 90, (R)-4-(3-(5-amino-7-methoxy-[1,2,4]triazolo[1,5-c]quinazolin-2-yl)piperidin-1-yl)-1-methylquinolin-2(1H)-one], the figures for the IC50 in assay [1] and in assay [3] were 5930 nM and 1.9 nM, respectively.

Turning to `COc1cccc2c1nc(N)n1nc([C@@H]3CCCN(c4ccn(C(C)C)c(=O)c4)C3)nc21` [Example 89, (R)-4-(3-(5-amino-7-methoxy-[1,2,4]triazolo[1,5-c]quinazolin-2-yl)piperidin-1-yl)-1-isopropylpyridin-2(1H)-one], the half-inhibitory concentration (IC50) in assay [1] came to 631 nM; in assay [3], 1.5 nM.

With `COc1cccc2c1nc(N)n1nc([C@@H]3CCCN(c4cnc(C5CC5)n4C)C3)nc21` [Example 84, (R)-2-(1-(2-cyclopropyl-1-methyl-1H-imidazol-5-yl)piperidin-3-yl)-7-methoxy-[1,2,4]triazolo[1,5-c]quinazolin-5-amine], the IC50 turned out to be 187 nM in assay [1] and 1.6 nM in assay [3].

With `COc1ccc2c(c1)nc(N)n1nc([C@@H]3CCCN(c4cnn([C@@H](C)[C@H](C)O)c4)C3)nc21` [Example 220A, (2S,3S)-3-(4-((R)-3-(5-amino-8-methoxy-[1,2,4]triazolo[1,5-c]quinazolin-2-yl)piperidin-1-yl)-1H-pyrazol-1-yl)butan-2-ol], the IC50 amounted to 66.2 nM in assay [1] and 1.03 nM in assay [3].

For the molecule `COc1cccc2c1nc(N)n1nc(C3CN(c4cnn(CC(F)(F)F)c4)CC(F)(F)C3)nc21` (single isomer, unassigned) [Example 155B], the IC50 in assay [1] was found to be 301 nM; in assay [3], 0.7 nM.

`COc1ccc2c(c1)nc(N)n1nc([C@@H]3C[C@H](C)CN(c4cn([C@H](C)[C@@H](C)O)nc4C)C3)nc21` [Example 219B, (2R,3R)-3-(4-((3R,5S)-3-(5-amino-8-methoxy-[1,2,4]triazolo[1,5-c]quinazolin-2-yl)-5-methylpiperidin-1-yl)-3-methyl-1H-pyrazol-1-yl)butan-2-ol]: the IC50 in assay [1] was found to be 999 nM; in assay [3], 0.2 nM.
